Results reported in PubChem BioAssay (NCI).
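How tested: cells in 96-well plates exposed to compound for 48 hours at five concentrations. GI50: concentration for 50% inhibition of growth. TGI: concentration producing complete growth inhibition.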

Legend:
Assay in all cases: NCI-60 cell line screen, 48 h
HCT-116 colon = system: HCT-116 colon
MDA-MB-231 breast = system: MDA-MB-231 breast
U251 CNS = system: U251 CNS
SR leukemia = system: SR leukemia
SNB-19 CNS = system: SNB-19 CNS
NCI-H23 lung = system: NCI-H23 lung
DU-145 prostate = system: DU-145 prostate
SK-OV-3 ovarian = system: SK-OV-3 ovarian
RPMI-8226 leukemia = system: RPMI-8226 leukemia
ACHN renal = system: ACHN renal
NCI/ADR-RES ovarian = system: NCI/ADR-RES ovarian
MCF7 breast = system: MCF7 breast
HOP-92 NSCLC = system: HOP-92 NSCLC
CAKI-1 renal = system: CAKI-1 renal
MALME-3M melanoma = system: MALME-3M melanoma
MDA-MB-435 = system: MDA-MB-435
MOLT-4 leukemia = system: MOLT-4 leukemia
TK-10 renal = system: TK-10 renal
NCI-H226 lung = system: NCI-H226 lung
HS 578T breast = system: HS 578T breast
OVCAR-5 ovarian = system: OVCAR-5 ovarian
NCI-H460 lung = system: NCI-H460 lung
SW-620 colon = system: SW-620 colon
SF-295 CNS = system: SF-295 CNS
A549 NSCLC = system: A549 NSCLC
UACC-257 melanoma = system: UACC-257 melanoma
UO-31 renal = system: UO-31 renal
HL-60(TB) leukemia = system: HL-60(TB) leukemia

COc1ccccc1NC1=C(Cl)C(=O)c2nc(C)ccc2C1=O
TGI (HCT-116 colon): 4160 nM | GI50 (MDA-MB-231 breast): 1190 nM | TGI (MDA-MB-231 breast): 2530 nM | GI50 (U251 CNS): 1850 nM | TGI (U251 CNS): 3730 nM | GI50 (SR leukemia): 794 nM | TGI (SR leukemia): 4250 nM | GI50 (SNB-19 CNS): 1810 nM | TGI (SNB-19 CNS): 3720 nM | GI50 (NCI-H23 lung): 1470 nM | TGI (NCI-H23 lung): 3310 nM | GI50 (DU-145 prostate): 1720 nM | TGI (DU-145 prostate): 3110 nM | GI50 (SK-OV-3 ovarian): 12600 nM | TGI (SK-OV-3 ovarian): 27500 nM | GI50 (RPMI-8226 leukemia): 1570 nM | TGI (RPMI-8226 leukemia): 4610 nM | GI50 (ACHN renal): 1470 nM | TGI (ACHN renal): 2800 nM | GI50 (NCI/ADR-RES ovarian): 2030 nM | TGI (NCI/ADR-RES ovarian): 5160 nM | GI50 (MCF7 breast): 1780 nM | TGI (MCF7 breast): 4490 nM | GI50 (HOP-92 NSCLC): 1850 nM | TGI (HOP-92 NSCLC): 3300 nM | GI50 (CAKI-1 renal): 1500 nM | TGI (CAKI-1 renal): 2870 nM | GI50 (MALME-3M melanoma): 1710 nM | TGI (MALME-3M melanoma): 3190 nM | GI50 (MDA-MB-435): 1700 nM | TGI (MDA-MB-435): 3110 nM | GI50 (MOLT-4 leukemia): 2270 nM | TGI (MOLT-4 leukemia): 8600 nM | GI50 (TK-10 renal): 2340 nM | TGI (TK-10 renal): 3860 nM | GI50 (NCI-H226 lung): 1930 nM | TGI (NCI-H226 lung): 4520 nM | GI50 (HS 578T breast): 2270 nM | TGI (HS 578T breast): 5640 nM | GI50 (OVCAR-5 ovarian): 1860 nM | TGI (OVCAR-5 ovarian): 3420 nM | GI50 (NCI-H460 lung): 3220 nM | TGI (NCI-H460 lung): 12000 nM | GI50 (SW-620 colon): 1840 nM | TGI (SW-620 colon): 3730 nM | GI50 (SF-295 CNS): 1850 nM | TGI (SF-295 CNS): 3420 nM | GI50 (A549 NSCLC): 2440 nM | TGI (A549 NSCLC): 6240 nM | GI50 (UACC-257 melanoma): 1570 nM | TGI (UACC-257 melanoma): 3090 nM | GI50 (UO-31 renal): 1420 nM | TGI (UO-31 renal): 2730 nM | GI50 (HL-60(TB) leukemia): 1370 nM | TGI (HL-60(TB) leukemia): 3520 nM
